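Protocol summary: plate cells (96-well), add compound at 5 concentrations, incubate 48 h, interpolate endpoints linearly. Here, GI50 denotes the concentration required for 50% inhibition of growth. TGI is the concentration that stops growth completely.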
Key:
Test in all cases: DTP human tumour cell line panel, 48 h
RPMI-8226 leukemia = system: RPMI-8226 leukemia
EKVX NSCLC = system: EKVX NSCLC
CCRF-CEM leukemia = system: CCRF-CEM leukemia
COLO 205 colon = system: COLO 205 colon
OVCAR-8 ovarian = system: OVCAR-8 ovarian
RXF 393 renal = system: RXF 393 renal
LOX IMVI melanoma = system: LOX IMVI melanoma
MDA-MB-435 = system: MDA-MB-435
MALME-3M melanoma = system: MALME-3M melanoma
MCF7 breast = system: MCF7 breast
MOLT-4 leukemia = system: MOLT-4 leukemia
CAKI-1 renal = system: CAKI-1 renal
HL-60(TB) leukemia = system: HL-60(TB) leukemia
DU-145 prostate = system: DU-145 prostate
SNB-75 CNS = system: SNB-75 CNS
OVCAR-5 ovarian = system: OVCAR-5 ovarian
SK-MEL-5 melanoma = system: SK-MEL-5 melanoma
U251 CNS = system: U251 CNS
SF-268 CNS = system: SF-268 CNS
OVCAR-4 ovarian = system: OVCAR-4 ovarian
HT29 colon = system: HT29 colon
UACC-257 melanoma = system: UACC-257 melanoma
UACC-62 melanoma = system: UACC-62 melanoma
M14 melanoma = system: M14 melanoma
SW-620 colon = system: SW-620 colon
TK-10 renal = system: TK-10 renal
HCC-2998 colon = system: HCC-2998 colon
PC-3 prostate = system: PC-3 prostate
HCT-15 colon = system: HCT-15 colon
BT-549 breast = system: BT-549 breast
KM12 colon = system: KM12 colon
K-562 leukemia = system: K-562 leukemia
SK-OV-3 ovarian = system: SK-OV-3 ovarian
ACHN renal = system: ACHN renal
NCI/ADR-RES ovarian = system: NCI/ADR-RES ovarian
786-0 renal = system: 786-0 renal
NCI-H522 lung = system: NCI-H522 lung
NCI-H460 lung = system: NCI-H460 lung
T-47D breast = system: T-47D breast
OVCAR-3 ovarian = system: OVCAR-3 ovarian
MDA-MB-468 breast = system: MDA-MB-468 breast
SF-539 CNS = system: SF-539 CNS
SN12C renal = system: SN12C renal
HCT-116 colon = system: HCT-116 colon
HOP-62 NSCLC = system: HOP-62 NSCLC
NCI-H23 lung = system: NCI-H23 lung
NCI-H226 lung = system: NCI-H226 lung
SF-295 CNS = system: SF-295 CNS
SK-MEL-2 melanoma = system: SK-MEL-2 melanoma
MDA-MB-231 breast = system: MDA-MB-231 breast
SNB-19 CNS = system: SNB-19 CNS
A549 NSCLC = system: A549 NSCLC
SR leukemia = system: SR leukemia
A498 renal = system: A498 renal
HS 578T breast = system: HS 578T breast
SK-MEL-28 melanoma = system: SK-MEL-28 melanoma
IGROV1 ovarian = system: IGROV1 ovarian
UO-31 renal = system: UO-31 renal
HOP-92 NSCLC = system: HOP-92 NSCLC

Which results are given for Fc1ccccc1CNc1nc(SCCN2CCOCC2)nc2c1cnn2CC(Cl)c1ccc(Br)cc1 (stereo not drawn)?
GI50 (RPMI-8226 leukemia): 2.67 µM; TGI (RPMI-8226 leukemia): 8.25 µM; GI50 (EKVX NSCLC): 5.28 µM; TGI (EKVX NSCLC): > 100 µM; GI50 (CCRF-CEM leukemia): 3.34 µM; TGI (CCRF-CEM leukemia): > 100 µM; GI50 (COLO 205 colon): 2.8 µM; TGI (COLO 205 colon): 8.12 µM; GI50 (OVCAR-8 ovarian): 6.36 µM; TGI (OVCAR-8 ovarian): > 100 µM; GI50 (RXF 393 renal): 1.43 µM; TGI (RXF 393 renal): 5.27 µM; GI50 (LOX IMVI melanoma): 2.6 µM; TGI (LOX IMVI melanoma): 7.91 µM; GI50 (MDA-MB-435): 4.98 µM; TGI (MDA-MB-435): > 100 µM; GI50 (MALME-3M melanoma): 2.54 µM; TGI (MALME-3M melanoma): 6.89 µM; GI50 (MCF7 breast): 3.58 µM; TGI (MCF7 breast): > 100 µM; GI50 (MOLT-4 leukemia): 3.46 µM; TGI (MOLT-4 leukemia): > 100 µM; GI50 (CAKI-1 renal): 3.83 µM; TGI (CAKI-1 renal): > 100 µM; GI50 (HL-60(TB) leukemia): 4.1 µM; TGI (HL-60(TB) leukemia): > 100 µM; GI50 (DU-145 prostate): 49.6 µM; TGI (DU-145 prostate): > 100 µM; GI50 (SNB-75 CNS): 2.71 µM; TGI (SNB-75 CNS): > 100 µM; GI50 (OVCAR-5 ovarian): > 100 µM; TGI (OVCAR-5 ovarian): > 100 µM; GI50 (SK-MEL-5 melanoma): 2.87 µM; TGI (SK-MEL-5 melanoma): 10.7 µM; GI50 (U251 CNS): 5.93 µM; TGI (U251 CNS): > 100 µM; GI50 (SF-268 CNS): 6.08 µM; TGI (SF-268 CNS): > 100 µM; GI50 (OVCAR-4 ovarian): 3.49 µM; TGI (OVCAR-4 ovarian): > 100 µM; GI50 (HT29 colon): 1.47 µM; TGI (HT29 colon): 3.39 µM; GI50 (UACC-257 melanoma): 3.38 µM; TGI (UACC-257 melanoma): 79.1 µM; GI50 (UACC-62 melanoma): 2.09 µM; TGI (UACC-62 melanoma): 5.23 µM; GI50 (M14 melanoma): 4.19 µM; TGI (M14 melanoma): > 100 µM; GI50 (SW-620 colon): 2.05 µM; TGI (SW-620 colon): 5.39 µM; GI50 (TK-10 renal): > 100 µM; TGI (TK-10 renal): > 100 µM; GI50 (HCC-2998 colon): 3.94 µM; TGI (HCC-2998 colon): > 100 µM; GI50 (PC-3 prostate): 3.73 µM; TGI (PC-3 prostate): > 100 µM; GI50 (HCT-15 colon): 1.69 µM; TGI (HCT-15 colon): 3.95 µM; GI50 (BT-549 breast): 20.9 µM; TGI (BT-549 breast): > 100 µM; GI50 (KM12 colon): 3.74 µM; TGI (KM12 colon): > 100 µM; GI50 (K-562 leukemia): 2.55 µM; TGI (K-562 leukemia): > 100 µM; GI50 (SK-OV-3 ovarian): > 100 µM; TGI (SK-OV-3 ovarian): > 100 µM; GI50 (ACHN renal): 4.39 µM; TGI (ACHN renal): > 100 µM; GI50 (NCI/ADR-RES ovarian): 4.24 µM; TGI (NCI/ADR-RES ovarian): > 100 µM; GI50 (786-0 renal): 3.31 µM; TGI (786-0 renal): 30.6 µM; GI50 (NCI-H522 lung): 5.16 µM; TGI (NCI-H522 lung): > 100 µM; GI50 (NCI-H460 lung): 3.99 µM; TGI (NCI-H460 lung): > 100 µM; GI50 (T-47D breast): 2.87 µM; TGI (T-47D breast): > 100 µM; GI50 (OVCAR-3 ovarian): 37.4 µM; TGI (OVCAR-3 ovarian): > 100 µM; GI50 (MDA-MB-468 breast): 2.26 µM; TGI (MDA-MB-468 breast): 7 µM; GI50 (SF-539 CNS): 2.29 µM; TGI (SF-539 CNS): 6.94 µM; GI50 (SN12C renal): 5.93 µM; TGI (SN12C renal): > 100 µM; GI50 (HCT-116 colon): 3.67 µM; TGI (HCT-116 colon): > 100 µM; GI50 (HOP-62 NSCLC): 7.35 µM; TGI (HOP-62 NSCLC): > 100 µM; GI50 (NCI-H23 lung): 7.76 µM; TGI (NCI-H23 lung): > 100 µM; GI50 (NCI-H226 lung): 3.52 µM; TGI (NCI-H226 lung): > 100 µM; GI50 (SF-295 CNS): 3.04 µM; TGI (SF-295 CNS): > 100 µM; GI50 (SK-MEL-2 melanoma): 2.9 µM; TGI (SK-MEL-2 melanoma): 11.7 µM; GI50 (MDA-MB-231 breast): 3.6 µM; TGI (MDA-MB-231 breast): > 100 µM; GI50 (SNB-19 CNS): 7.08 µM; TGI (SNB-19 CNS): > 100 µM; GI50 (A549 NSCLC): 4.06 µM; TGI (A549 NSCLC): > 100 µM; GI50 (SR leukemia): 4.8 µM; TGI (SR leukemia): > 100 µM; GI50 (A498 renal): 8.94 µM; TGI (A498 renal): > 100 µM; GI50 (HS 578T breast): 3.6 µM; TGI (HS 578T breast): > 100 µM; GI50 (SK-MEL-28 melanoma): 4.99 µM; TGI (SK-MEL-28 melanoma): > 100 µM; GI50 (IGROV1 ovarian): > 100 µM; TGI (IGROV1 ovarian): > 100 µM; GI50 (UO-31 renal): 3.13 µM; TGI (UO-31 renal): > 100 µM; GI50 (HOP-92 NSCLC): 3.96 µM; TGI (HOP-92 NSCLC): > 100 µM

— PubChem BioAssay (NCI)
